Measurements taken from US8586369B2, “Ion channel-forming peptides” (The Regents of the University of California, priority 2007, dated 2013).
Values joined by “and” are separate entries in the source; they are usually repeats but may differ in a detail not shown here. Equal values may be shown once. “Also recorded” adds a separate entry of the source.

Key:
[1] = Single-channel conductance of homodimeric gA pores in planar lipid bilayers made from DiPhyPC (Example 1); format: biochemical; conditions: for Single-channel conductance γ: HEPES pH 7.4, DiPhyPC bilayers, slope of I-V curves; for Single-channel conductance γ / γ at pH 7.4: homodimers; for γ-ratio to gA-gA: pH 7.4, DiPhyPC; for γ at pH 7.4: DiPhyPC bilayers
Procedure: Formation of planar lipid bilayers: We formed most planar lipid bilayers with the “folding technique.” We used a Teflon film (Eastern Scientific Inc, pore diameter 0.18-0.25 mm) was pretreated on each side with 2.5 μL of 5% hexadecane in pentane and air dried. This film was mounted using vacuum grease (Dow Corning, High vacuum grease) to a custom made Teflon chamber separating two buffer compartments each with a volume capacity of 4 mL. After adding 1 mL of electrolyte (0.01 M to 1.00 M KCl buffered with HEPES pH 7.4) to each compartment, lipids were spread from a solution in pentane onto the surface of the electrolyte solutions (specifically, 4-6 μL from 25 mg mL-l solution DiPhyPC or from 6.25 mg mL-l each of 50% DOPS and 50% POPE or from 25 mg mL-l DODAP mixed with 25 mg mL-l DiPhyPC in a 1:9 ratio. Three additional milliliters of electrolyte solution were added to each side of the chamber to raise the liquid levels above the aperture. We formed the bilayers from apposition of two monolayers of lipids using the method described by Montal et al. (Proc. Natl. Acad. Sci. U.S.A. 1972, 69, 3561-3566). Briefly, bilayers were obtained by consecutively raising the liquid level in each compartment until the pore was completely covered by electrolyte. If at this point the pore was not closed by a lipid bilayer, then the liquid level in one or both compartments was lowered below the pore level by aspirating electrolyte into a 3 mL syringe, followed by raising the electrolyte solution again.
Planar lipid bilayers were also made with the “painting technique”. We pretreated each side of a pore in a bilayer cup (Warner Instruments, Delrin perfusion cup, volume 1 mL, pore diameter 250 μm) with ˜2 μL of a 25 mg mL-l solution of DiPhyPC in hexane. After adding recording buffer (0.01 M KCl to 1.00 M KCl buffered with HEPES, pH=7.4) to both compartments of the bilayer setup, we “painted” a solution of 20 mg mL-l DiPhyPC in n-decane over the pore by using a paint brush with a fine tip. We followed the thinning of the decane droplet to form a planar bilayer by monitoring the capacitance of the bilayer. After verifying that bilayers were stable for several minutes (in the range of ±200 mV applied voltage) and that the capacitances were above 80-90 pF, gA was added (4-8 μL from 1 ng mL-l in ethanol), derivatives 1 or 2 (2-10 μL from 100 ng mL-l in ethanol), or derivative 3 (4-10 μL from 100 ng mL-l in ethanol) directly to the bilayer chambers.
Ion channel measurements: We performed single channel recordings in “voltage clamp mode” using Ag/AgCl electrodes (Warner Instruments) in each compartment of the bilayer chambers. Data acquisition and storage was carried out using custom software in combination with either an EPC-7 patch clamp amplifier from List Medical Electronic (set at a gain of 100 mV pA-1 and a filter cutoff frequency of 3 kHz) or a Geneclamp 500 amplifier from Axon Instruments (with a CV-5B 100GU headstage, set at a gain of 100 mV pA-1 and filter cutoff frequency of 1 kHz). We used the EPC-7 amplifier for most folded bilayers and the Geneclamp 500 amplifier for most painted bilayers. The data acquisition boards for both amplifiers were set to a sampling frequency of 15 kHz. All current traces shown in the figures were further filtered using a digital Gaussian low-pass filter with a cutoff frequency of 30 Hz. The current traces we used to generate all data that was recorded at applied potentials s 50 mV were filtered at 10 Hz.
We performed the analysis of the single channel current traces by computing histograms of the currents from the original current-time traces with ClampFit 9.2 software from Axon Instruments. From these histograms we extracted the main current values by fitting a Gaussian function to the peaks in the histograms. […] Single channel conductances reported in this paper always refer to the main conductance state (i.e. to the dominant peaks in the current histograms).

[2] = Single-channel conductance in negatively charged planar bilayers (50% POPE, 50% DOPS); format: biochemical; conditions: 0.01 M KCl
Text: The data acquisition boards for both amplifiers were set to a sampling frequency of 15 kHz.

[3] = Single channel recordings of gA derivatives in planar lipid bilayers (Example 2); format: biochemical; conditions: applied potential 100 mV, 20 mM KCl, 0.2 mM HEPES pH 7.4
Procedure: Formation of Planar Lipid Bilayers: Planar lipid bilayers were formed by the “folding technique.” Briefly, a film (e.g., Teflon®, Eastern Scientific Inc, pore diameter 0.1-0.2 mm) that was pretreated on both sides of the pore with 2 μL of 5% (v/v) hexadecane in pentane. This film was mounted using vacuum grease (Dow Corning, High vacuum grease) to a custom-made Teflon chamber separating two buffer compartments each with a volume capacity of 4 mL. After addition of 1 mL of electrolyte (20 mM KCl buffered with 0.2 mM HEPES pH 7.4 or 140 mM KCl buffered with 10 mM phosphate pH 8.0) to each compartment, lipids were spread at the air-water interface of the electrolyte solution in both compartments. Three additional milliliters of the same electrolyte solution were added to each compartment to raise the liquid level above the aperture in the Teflon film. The bilayers were formed on the pore of the Teflon film by aspirating the electrolyte solution into a 3 mL syringe, followed by dispensing the electrolyte solution back into each compartment.
Ion Channel Measurements: Single channel recordings in “voltage clamp mode” were performed using Ag/AgCl pellet electrodes (Warner Instruments) in each compartment of the bilayer setup. Data acquisition and storage was carried out using custom software in combination with an EPC-7 patch clamp amplifier from Heka (set at a gain of 10 mV pA^−1 and a filter cutoff frequency of 3 kHz). The data acquisition board for the amplifier was set to a sampling frequency of 15 kHz. All current traces shown in the figures were further filtered using a digital Gaussian low-pass filter with a cutoff frequency of 4 Hz.
The analysis of single channel current traces was performed by computing histograms of the currents from the original current versus time traces with ClampFit 9.2 software from Axon Instruments. From these histograms, main current values were extracted by fitting a Gaussian function to the peaks in the histograms. […]

[4] = Single-channel conductance of homodimeric gA pores in planar lipid bilayers made from DiPhyPC (Example 1); format: biochemical; conditions: 20 mM KCl plus 10 mM KOH; for γ at pH 12: DiPhyPC bilayers, homodimers
Alkaline Phosphatase = test system: Alkaline Phosphatase
Procedure: Monitoring the enzymatic hydrolysis of glycolic acid-O-phosphate with Alkaline Phosphatase by NMR: Glycolic acid-O-phosphate (1.1 mg, 7.1 μmol) was added to a buffer containing 0.5 mL of 100 mM KCl, 140 mM Na2CO3 buffer in 0.5 mL of D2O at pD 9.4. […] (0.5 mg, 1 nmol) was added to the solution and ^31P-NMR spectra were taken at various time points to monitor the enzymatic hydrolysis of glycolic acid-O-phosphate to glycolic acid. ^31P-NMR (300 MHz, D2O): glycolic acid-O-phosphate: δ 3.33 ppm, free inorganic phosphate: 2.54 ppm using an internal 85% phosphoric acid standard (set to 0 ppm).

[5] = target: bovine carbonic anhydrase II (CA, EC 4.2.1.1) (Bos taurus, UniProt P00921); assay: Detection of protein-ligand binding interactions using ion channel measurements; conditions: 12 pM structure 11, 50 μM CA, 140 mM KCl, 10 mM phosphate pH 8.0, 100 mV
Procedure: Benzenesulfonamides are well-known ligands for carbonic anhydrase II (CA, EC 4.2.1.1), a Zn^2+-containing protein.
Detection of protein-ligand binding interactions using ion channel measurements: About 1 μL (from a 100 ng mL^−1 solution in ethanol) of structure 11 (to afford a final concentration of 12 pM of structure 11) was added to each compartment of a bilayer setup containing as electrolyte 140 mM KCl and 10 mM phosphate buffer (pH 8.0). The conductance was recorded at 100 mV.

bovine carbonic anhydrase II (CA, EC 4.2.1.1), sequence (P00921 whole entry): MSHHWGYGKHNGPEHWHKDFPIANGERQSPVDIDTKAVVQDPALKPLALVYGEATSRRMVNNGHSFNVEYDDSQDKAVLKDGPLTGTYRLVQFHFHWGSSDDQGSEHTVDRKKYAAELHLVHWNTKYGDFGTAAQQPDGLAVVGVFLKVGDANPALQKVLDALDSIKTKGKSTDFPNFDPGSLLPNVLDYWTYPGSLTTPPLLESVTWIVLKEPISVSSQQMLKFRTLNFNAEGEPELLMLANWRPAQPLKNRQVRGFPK

Compound: gramicidyl taurinyl succinate [compound 1]
- Single-channel conductance γ ([1]; 0.01 M KCl): 3.5 ± 0.3 pS
- γ-ratio to gA-gA ([1]; 0.01 M KCl): about 1.3
- γ-ratio to gA-gA ([1]; 0.01 M KCl, listed as 1-1): 1.3
- Single-channel conductance γ ([1]; 0.10 M KCl): 11.0 ± 0.4 pS
- γ-ratio to gA-gA ([1]; 0.10 M KCl): 1.1
- Single-channel conductance γ ([1]; 1.00 M KCl): 19.5 ± 0.4 pS
- γ-ratio to gA-gA ([1]; 1.00 M KCl): 1.0
- difference in single channel conductance compared to gA ([1]; approximately 0.10 M KCl): 7%
- difference in single channel conductance compared to gA ([1]; approximately 1.00 M KCl): 3%
- Single-channel conductance γ in negatively charged bilayers ([2]; 0.1 mM HEPES pH 7.4): 26.8±0.9 pS

Compound: gramicidamine
- conductance compared with gA-gA at pH 7.4 ([1]; 20 mM KCl, DiPhyPC): significantly less
- γ at pH 7.4 ([1]; 20 mM KCl): 3.8 ± 0.2 pS
- ion channel activity in planar lipid bilayers [3]: retained well-defined ion channel activity
- conductance compared with gA-gA at pH 12 ([4]; DiPhyPC): indistinguishable
- γ at pH 12 [4]: 7.7 ± 0.9 pS

Compound: O=C(O)COP(=O)(O)O [glycolic acid-O-phosphate]
- time after which the enzymatic hydrolysis was completed (Alkaline Phosphatase; 7.1 μmol substrate, 1 nmol enzyme, 100 mM KCl, 140 mM Na2CO3, pD 9.4): 50 min
- hydrolysis by AP (Alkaline Phosphatase; 31P-NMR spectroscopy): hydrolyzed by AP

Compound: gA-triazole-benzenesulfonamide [structure 11]
- effect of CA on ion channel activity [5]: suppression of ion channel activity; also recorded: reduction of ion channel activity
- effect of CA on ion channel activity ([5]; listed as gA-sulfonamide 11): reduces the observed transmembrane ion flux

Compound: Gramicidin A [gA, reference compound]
- Single-channel conductance γ ([1]; 0.01 M KCl): 2.7 ± 0.5 pS
- γ at pH 7.4 ([1]; 20 mM KCl): 4.5 ± 0.1 pS
- Single-channel conductance γ ([1]; 0.10 M KCl): 10.3 ± 0.1 pS
- Single-channel conductance γ ([1]; 1.00 M KCl, listed as gA-gA): 20 pS and 20.0 ± 0.2 pS
- Single-channel conductance γ in negatively charged bilayers ([2]; 0.1 mM HEPES pH 7.4, listed as gA-gA): 26.9±0.2 pS and 27 pS
- γ at pH 12 [4]: 7.8 ± 0.2 pS
